Laboratory results reported in US6743363B2, “Method of bacteriostasis or disinfection for permselective membrane” (Toray Industries, Inc., priority 1998, dated 2004).
Read-outs that look alike come from different tables or passages of the source.

Columns and labels:
[1] = test system: suspension of a solid deposit on a reverse osmosis membrane having been used in seawater desalination; experiment: Survival rate of cells in 3.5% artificial seawater: suspension of deposit on membrane; assay type: cell-based
Description: (§1) For comparison, 500 ppm of sodium bisulfite was added in place of sulfuric acid, and the data obtained are also shown in Table 1.

[2] = test system: un-identified bacteria as separated from the solid deposit suspension; experiment: Survival rate of cells in 3.5% artificial seawater: cells from deposit on membrane; assay type: cell-based
Description: as §1

E. coli = experiment: Survival rate of cells in 3.5% artificial seawater: E. coli; assay type: cell-based, Escherichia coli
Description: as §1

[3] = test system: Acid-resistant Bacteria 2
[4] = test system: Acid-resistant Bacteria 3
acid-resistant bacteria = test system: acid-resistant bacteria
Description: Two membrane separation systems (systems A and B) each comprising a pre-treatment unit and a membrane separation unit having a reverse osmosis membrane module of polyamide were driven for seawater desalination through reverse osmosis filtration to produce fresh water. In these, a culture of the acid-resistant bacteria having been obtained in Reference Example 3 was added to the pre-treated seawater. […] In those conditions, the two systems were continuously driven for 30 days. […] While the systems were driven under the defined conditions, the number of living cells in the concentrate was counted.

[5] = test system: living cells in the concentrate; conditions: Example 1: sulfuric acid pH 3.5 to 4, 30 min/day, running days 1 to 30
Description: The invention is described concretely with reference to the following Examples, which, however, are not intended to restrict the scope of the invention. In these Examples, the disinfecting effect is represented by the number of living microorganisms, the pressure loss in membrane modules and the consumption of sodium bisulfite (SBS).
Two membrane separation units each having a reverse osmosis membrane of polyamide were driven for seawater desalination through reverse osmosis filtration to produce fresh water. […] In that condition, the two units were continuously driven for 1 month. […] While the units were driven under the condition, the number of the living cells in the concentrate having passed through each unit was counted.

[6] = test system: Acid-resistant Bacteria 1
marine bacteria = experiment: Colonies formed on agar medium for marine bacteria from treated seawater mixture; assay type: cell-based; conditions: 200 ppm of sulfuric acid, pH 2.8, for 2 hours at 20° C.; 0.1 ml plated on agar pH 7; untreated pH 8.5 gave 200
Description: 1% of seawater was added to commercially-available, 3.5% artificial seawater having been subjected to pressure disinfection (at 120° C. for 15 minutes), and the pH of the resulting seawater mixture was measured to be 8.5. After having been kept at 20° C. for 2 hours, 0.1 ml of the seawater mixture was applied onto an agar medium for marine bacteria, of which the pH value had been controlled to be 7, and then kept warmed at 20° C.
The pH of the resulting seawater mixture was 2.8. After having been kept at 20° C. for 2 hours, 0.1 ml of the seawater mixture was applied onto an agar medium for marine bacteria, of which the pH value had been controlled to be 7.

[7] = test system: Escherichia coli K12 IFO 3301; conditions: physiological saline 0.9%
[8] = 500 ppm, 2.5 hr, pH 5.9, 20° C.
[9] = 250 ppm, 0.5 hr, pH 2.6, 20° C.
[10] = 250 ppm, 2.5 hr, pH 2.6, 20° C.
[11] = 300 ppm, 0.5 hr, pH 2.6, 20° C.
[12] = 100 ppm, 2.5 hr, pH 5.1, 20° C.
[13] = 120 ppm, 0.5 hr, pH 4.0, 20° C.
[14] = 120 ppm, 2.5 hr, pH 4.0, 20° C.
[15] = 150 ppm, 0.5 hr, pH 3.3, 20° C.
[16] = 200 ppm, 0.5 hr, pH 2.9, 20° C.
[17] = 300 ppm, 0.5 hr, pH 2.5, 20° C.

O=S([O-])O.[Na+] [Sodium Bisulfite, sodium bisulfite, reference compound]
Survival Rate (%) Suspension of Deposit on Membrane [1, 8]: 90%
Survival Rate (%) Cells from Deposit on Membrane [2, 8]: 86%
Survival Rate (%) E. coli (E. coli; [8]): 98%

O=S(=O)(O)O [Sulfuric Acid, sulfuric acid]
Survival Rate (%) Acid-resistant Bacteria 2 ([3]; 200 ppm, 1 hr, pH 2.8, 20° C.): 22%
Survival Rate (%) Acid-resistant Bacteria 2 [3, 9]: 33%
Survival Rate (%) Acid-resistant Bacteria 2 ([3]; 250 ppm, 1 hr, pH 2.6, 20° C.): 2%
Survival Rate (%) Acid-resistant Bacteria 2 [3, 10]: <1%
Survival Rate (%) Acid-resistant Bacteria 2 [3, 11]: 1%
Survival Rate (%) Acid-resistant Bacteria 2 ([3]; 300 ppm, 1 hr, pH 2.4, 20° C.): <1%
Survival Rate (%) Acid-resistant Bacteria 3 ([4]; 200 ppm, 1 hr, pH 2.8, 20° C.): <1%
Survival Rate (%) Acid-resistant Bacteria 3 [4, 9]: 1%
Survival Rate (%) Acid-resistant Bacteria 3 ([4]; 250 ppm, 1 hr, pH 2.6, 20° C.): <1%
Survival Rate (%) Acid-resistant Bacteria 3 [4, 10]: <1%
Survival Rate (%) Acid-resistant Bacteria 3 [4, 11]: <1%
Survival Rate (%) Acid-resistant Bacteria 3 ([4]; 300 ppm, 1 hr, pH 2.4, 20° C.): <1%
Ratio of Living Microbes in Concentrate (acid-resistant bacteria; pH 2.6, 30 minutes a day): <1
Ratio of Living Microbes in Concentrate (acid-resistant bacteria; pH 3.5 to 4.0, 30 minutes a day): 100
Ratio of Living Microbes in Concentrate (acid-resistant bacteria; pH 3.5 to 4.0, 30 minutes a day, plus pH 2.6, 30 minutes a day (once at intervals of 5 days)): <1
Survival Rate (%) Suspension of Deposit on Membrane [1, 12]: 60%
Survival Rate (%) Suspension of Deposit on Membrane [1, 13]: 37%
Survival Rate (%) Suspension of Deposit on Membrane [1, 14]: 15%
Survival Rate (%) Suspension of Deposit on Membrane [1, 15]: <1%
Survival Rate (%) Suspension of Deposit on Membrane [1, 16]: <1%
Survival Rate (%) Suspension of Deposit on Membrane [1, 17]: <1%
Number of Living Cells in the concentrate, compared with the unit not subjected to the sulfuric acid treatment [5]:  1/100 or less
Number of Living Cells in the concentrate, compared with the unit not subjected to the sulfuric acid treatment ([5]; listed as sulfuric acid): 1/100
Survival Rate (%) Acid-resistant Bacteria 1 ([6]; 200 ppm, 1 hr, pH 2.8, 20° C.): 50%
Survival Rate (%) Acid-resistant Bacteria 1 [6, 9]: 17%
Survival Rate (%) Acid-resistant Bacteria 1 ([6]; 250 ppm, 1 hr, pH 2.6, 20° C.): <1%
Survival Rate (%) Acid-resistant Bacteria 1 [6, 10]: <1%
Survival Rate (%) Acid-resistant Bacteria 1 [6, 11]: 8%
Survival Rate (%) Acid-resistant Bacteria 1 ([6]; 300 ppm, 1 hr, pH 2.4, 20° C.): <1%
Survival Rate (%) Cells from Deposit on Membrane [2, 12]: 81%
Survival Rate (%) Cells from Deposit on Membrane [2, 15]: <1%
Survival Rate (%) Cells from Deposit on Membrane [2, 16]: <1%
Survival Rate (%) Cells from Deposit on Membrane [2, 17]: <1%
Number of Colonies Formed (marine bacteria): 3
Survival Rate (%) E. coli (E. coli; [12]): 107%
Survival Rate (%) E. coli (E. coli; [13]): 105%
Survival Rate (%) E. coli (E. coli; [14]): 93%
Survival Rate (%) E. coli (E. coli; [15]): <1%
Survival Rate (%) E. coli (E. coli; [16]): <1%
Survival Rate (%) E. coli (E. coli; [17]): <1%
survival rate of the cells ([7]; 10 ppm of sulfuric acid, pH 4.7, 20° C., 2.5 hours): ≥ 90%
survival rate of the cells ([7]; 50 ppm of sulfuric acid, pH 3.2, 20° C., 0.5 hours): 90%
survival rate of the cells ([7]; 50 ppm of sulfuric acid, pH 3.2, 20° C., 1 hour): 20%
survival rate of the cells ([7]; 50 ppm of sulfuric acid, pH 3.2, 20° C., 2.5 hours): ≤ 1%
survival rate of the cells ([7]; 100 ppm of sulfuric acid, 20° C., 0.5 hours): ≤ 1%
